Source: patent US12146167B2 (priority 2021, dated 2024)

How the values were obtained:
Details in all cases: pH 7.5
[1] = test system: Cv_MetZ (O-succinylhomoserine sulfhydrylase metZ, SEQ ID NO: 10); format: biochemical, Chromobacterium violaceum ATCC 12472
[2] = test system: Cg_MetY_P2T (O-acetylhomoserine sulfhydrylase variant metY_P2T, SEQ ID NO: 6); format: biochemical, Corynebacterium glutamicum ATCC 13032
[3] = test system: Hn_MetZ (O-succinylhomoserine sulfhydrylase metZ, SEQ ID NO: 14); format: biochemical, Hyphomonas neptunium ATCC 15444
[4] = test system: Cg_MetY (O-acetylhomoserine sulfhydrylase metY, SEQ ID NO: 2); format: biochemical, Corynebacterium glutamicum ATCC 13032

Measured: Product

CS [MM, methyl mercaptane]
yes: all assays above
